Experimental data as given in patent US20140094413A1, “HEPATOCYTE GROWTH FACTOR (HGF) MIMICS AS THERAPEUTIC AGENTS” (WASHINGTON STATE UNIVERSITY, priority 2012, published 2014).
Values joined by “and” are separate entries in the source; they are usually repeats but may differ in a detail not shown here. Identical values can stand only once. “Also recorded” adds a separate entry of the source. Where a SMILES comes first, the peptide text is derived from it. [ ]: non-standard residue; d: D form. The star is where a group is joined. Nle = CCCC[C@H](N)C(=O)O; Hexanoyl = CCCCCC(=O)*; Ahx = NCCCCCC(=O)O

Tests used:
hippocampal neurons [1] = test: Whole-cell recordings of mEPSCs in dissociated hippocampal neurons; format: cell-based, rat; parameters: unit not given beside the values; settings: 5 days
c-Met receptor = test: c-Met phosphorylation in acute adult rat hippocampal slices; format: cell-based; settings: 30 minutes
Description: Adult Sprague-Dawley rats (250 g+) obtained from Harlan Laboratories (Ca, USA) were anesthetized with isofluorane (Vet One™, MWI, Meridian, Id., USA) and decapitated. The brain was rapidly removed and placed into ice-chilled artificial cerebrospinal fluid (aCSF) for approximately 30 s. Both hemispheres were separated by a mid-saggital cut and both hippocampi removed. Slices were sectioned cross- and length-wise (400 μm) to ensure penetrability of the drug, using a McIlwain tissue chopper (Brinkmann, Gomshall, UK) and transferred to a gassed (95% O2/5% CO2) incubation chamber containing aCSF for 90 minutes at room temperature. Slices were transferred to fresh tubes, aCSF was removed by careful suctioning and replaced with aCSF containing vehicle (aCSF+aCSF), 100 ng/ml with carrier free adult recombinant Hepatocyte Growth Factor (HGF) (R and D Systems, MN, USA) in aCSF, 10^−10 M Hinge (Harding lab), […], 10^−10 M Dihexa (Harding lab) in aCSF, 10^−12 M Dihexa in aCSF or 50 ng/ml HGF+10^−12 M Dihexa in aCSF for 30 minutes at 37° C. with gentle rocking. aCSF was removed and the slices were lysed using RIPA buffer (Upstate/Milipore, Billerica, Mass.) and inhibitor Cocktails I and II (Sigma, St. Louis, Mo.), sonicated on ice and clarified by centrifugation for 30 minutes, 13,000 rpm at 4° C. The supernatant was removed from the pellet and stored at −80° C. or processed immediately for gel electrophoresis.
Protein concentration of the samples was quantified using the BCA method (Pierce, Rockford, Ill.) following the manufacturers protocol. Samples were added to SDS-PAGE buffer and boiled for 10 min. before loading onto a 4-12% Bis-Tris pre-cast gel (Invitrogen, Carlsbad, Calif.) for electrophoresis. Proteins were transferred onto PVDF membranes (Bio Rad, Hercules, Calif.) and blocked with AquaBlock™ (New England Biolabs, Ipswich, Mass.) for 1 hour at room temperature (RT). Primary antibody incubation was done in AquaBlock™ with rabbit anti-Met and […] phospho-Met (Tyr1234/1235) (1:1000, Cell Signaling Technology, Danvers, Mass.) overnight at 4° C. Alternating washes were done with PBS and PBST. Secondary antibody (IRDye) (Rockland, Gilbertsville, Pa.) incubations were done in AquaBlock™ for one hour at RT. Blots were imaged using LI-COR Odyssey Infrared Imaging System (LI-COR Biosciences, Lincoln, Nebr.).

hippocampal neurons [2] = test: Spinogenesis in mRFP-β-actin transfected dissociated hippocampal neurons; format: cell-based, rat; settings: for Spine numbers (spinogenesis) vs vehicle: 1 μM as printed in FIG. 34 legend; for Number of spines per 50 μm dendrite length: 10^−10 M; for Increase in the number of spines vs vehicle: 5 day treatment; for Spine density, dose dependence: 5 day stimulation, wide range of concentrations
Experimental: (§1) Hippocampal neurons (2×10^5 cells per square cm) were cultured from P1 Sprague Dawley rats on plates coated with poly-L-lysine from Sigma (St. Louis, Mo.; molecular weight 300,000). Hippocampal neurons were maintained in Neurobasal A media from Invitrogen (Carlsbad, Calif.) supplemented with B27 from Invitrogen, 0.5 mM L-glutamine, and […] cytosine-D-arabinofuranoside from Sigma added at 2 days in vitro. Hippocampal neurons were then cultured a further 3-7 days, at which time they were either transfected or treated with various pharmacological reagents as described in (Wayman, Davare et al. 2008).
(§2) Neurons were transfected with mRFP-β-actin on day in vitro 6 (DIV6) using LipofectAMINE™ 2000 (Invitrogen) according to the manufacturer's protocol. This protocol yielded the desired 3-5% transfection efficiency thus enabling the visualization of individual neurons. Higher efficiencies obscured the dendritic arbor of individual neurons. Expression of fluorescently tagged actin allowed clear visualization of dendritic spines, as dendritic spines are enriched in actin. […] On DIV 12 the neurons were fixed (4% paraformaldehyde, 3% sucrose, 60 mM PIPES, 25 mM HEPES, 5 mM EGTA, 1 mM MgCl2, pH 7.4) for 20 min at room temperature and mounted. Slides were dried for at least 20 hours at 4° C. and fluorescent images were obtained with Slidebook 4.2 Digital Microscopy Software driving an Olympus IX81 inverted confocal microscope with a 60× oil immersion lens, NA 1.4 and resolution 0.280 μm Dendritic spine density was measured on primary and secondary dendrites at a distance of at least 150 μm from the soma. Five 50 μm long segments of dendrite from at least 10 neurons per data point were analyzed for each data point reported. Each experiment was repeated at least three times using independent culture preparations. Dendrite length was determined using the National Institutes of Health's Image J 1.41o program (NIH, Bethesda, Md.) and the neurite tracing program Neuron J (Meijering, Jacob et al. 2004) Spines were manually counted.
as §1, with “centimeter)” for “cm)”, “P1-2” for “P1”, “the text or figure legends.” for “(Wayman, Davare et al. 2008).”
as §2, with “DIV12” for “DIV 12”, “Dendrite length was determined using the National Institutes of Health's Image J 1.41o program (NIH, Bethesda, Md.) and the neurite tracing program Neuron J (Meijering, Jacob et al. 2004) Spines were manually counted.” left out

[3] = saturating doses: HGF 100 ng/ml, Dihexa 10^−10 M
[4] = sub-threshold doses: HGF 50 ng/ml, Dihexa 10^−12 M
[5] = 10^−12 M, acute 30 minute application on DIV 12

## CCCCCC(=O)N[C@@H](Cc1ccc(O)cc1)C(=O)N[C@H](C(=O)NCCCCCC(N)=O)[C@@H](C)CC [Dihexa, N-hexanoic-Tyr-Ile-(6)-aminohexanoic amide] (Hexanoyl-Tyr-Ile-[Ahx]-NH2)
Hippocampal neurons [1]; 10^−12 M (each)
  mEPSC mean frequency: 6.75±0.99 and 8.25±0.56
c-Met receptor; [3]
  c-Met phosphorylation vs vehicle (aCSF): both increased c-Met phosphorylation; also recorded: effectively augment c-Met phosphorylation
c-Met receptor; [4]
  c-Met phosphorylation vs vehicle (aCSF): not statistically different from control treated slices; also recorded: did not significantly increase c-Met receptor phosphorylation
Hippocampal neurons [2]
  Concentration active in stimulating synaptogenesis: 10^−12 M
  Spine numbers (spinogenesis) vs vehicle: dramatic increase in spine numbers
  Spine density, dose dependence: dose-dependently stimulate spinogenesis
Hippocampal neurons [2]; 5 days
  Number of spines per 50 μm dendrite length: 11 spines per 50 μm dendrite length
Hippocampal neurons [2]; 10^−12 M
  Average spine head width: 0.80 μm
  Increase in the number of spines vs vehicle: ~3 fold
Hippocampal neurons [2]; [5]
  Mean spine numbers per 50 μm dendrite length: 23.9 spines per 50 μm dendrite length

## CCCC[C@H](N)C(=O)N[C@@H](Cc1ccc(O)cc1)C(=O)N[C@H](C(=O)N[C@@H](Cc1c[nH]cn1)C(=O)N1CCC[C@H]1C(=O)N[C@@H](Cc1ccccc1)C(=O)O)[C@@H](C)CC [Nle1-AngIV, reference compound] (H-[Nle]YIHPF-OH; N-terminus and C-terminus assumed)
Hippocampal neurons [2]
  Spine numbers (spinogenesis) vs vehicle: dramatic increase in spine numbers
  Spine density, dose dependence: dose-dependently stimulate spinogenesis
Hippocampal neurons [2]; 5 days
  Number of spines per 50 μm dendrite length: 22 spines per 50 μm dendrite length
Hippocampal neurons [2]; 10^−12 M
  Average spine head width: 0.87 μm
  Increase in the number of spines vs vehicle: greater than 2 fold
Hippocampal neurons [2]; [5]
  Mean spine numbers per 50 μm dendrite length: 2.6 spines per 50 μm dendrite length

## HGF: Hepatocyte growth factor, recombinant, purchased from R&D Systems
Hippocampal neurons [1]; HGF 10 ng/ml
  mEPSC mean frequency: 7.09±0.53 and 9.66±0.20
c-Met receptor; [3]
  c-Met phosphorylation vs vehicle (aCSF): both increased c-Met phosphorylation; also recorded: effectively augment c-Met phosphorylation
c-Met receptor; [4]
  c-Met phosphorylation vs vehicle (aCSF): not statistically different from control treated slices; also recorded: did not significantly increase c-Met receptor phosphorylation
Hippocampal neurons [2]; HGF 2.5 ng/ml (sub-threshold), 5 days
  Mean spine numbers per 50 μm dendrite length: 18.6 spines per 50 μm dendrite leng and 16.5 spines per 50 μm dendrite leng
Hippocampal neurons [2]; HGF 5 ng/ml, 5 days
  Mean spine numbers per 50 μm dendrite length: 24.7 spines per 50 μm dendrite leng
Hippocampal neurons [2]; HGF 10 ng/ml, 5 days
  Mean spine numbers per 50 μm dendrite length: 27.5 spines per 50 μm dendrite leng and 29.3 spines per 50 μm dendrite leng
Hippocampal neurons [2]; HGF 20 ng/ml, 5 days
  Mean spine numbers per 50 μm dendrite length: 27.0 spines per 50 μm dendrite leng
